Laboratory results reported in US11504439B2, “Radioactive compound for diagnosis of malignant melanoma and use thereof” (INDUSTRY FOUNDATION OF CHONNAM NATIONAL UNIVERSITY, priority 2017, dated 2022).
Each block holds one compound with its values, some of them ahead of it.

Columns and labels:
Melanin binding assay = assay: Melanin binding assay
Procedure: 0.74 MBq of [^18F] DMFB was reacted with 2 mg of melanin and 10 ml of distilled water for 10, 30, 60, and 120 minutes at 37° C. with stirring. Then, centrifugation was performed at 16,800 rpm for 10 minutes, and […] of the supernatant was measured with a gamma counter. Percentages (%) of [^18F]DMFB bound to melanin were calculated based on the mixture of [^18F]DMFB and distilled water alone without melanin.

B16F10 cell line tumor [1] = assay: Body distribution in small animal model of tumor transplantation; type: in vivo, nude mice
Procedure: (§1) In order to confirm the in vivo distribution of [^18F]DMFB, experiments were performed on nude mice whose tumor was grown to 100 to 150 mm^3 after about 10 days of injection of the B16F10 cell line into the right shoulder region. [^18F]DMFB was injected into the tail vein of the tumor-bearing mice at a dose of 7.4 MBq and sacrificed at 10, 30, 60, and 120 minutes, respectively to excise tumor tissue, blood and organs, and distribution of the radioactive compound was confirmed. The excised organs were measured by the gamma counter in each of the organs including blood, heart, lung, liver, spleen, stomach, intestine, kidney, pancreas, normal muscle, bone, brain, skin and eyes. The results were corrected by organ weight and expressed as a percentage of injections per gram of tissue (% ID/g).
as §1, with “In addition, in” for “In”, “[^18F]DMPY2 prepared in the example 3-2,” for “[^18F]DMFB,”, “tumors were” for “tumor was”, “[^18F]DMPY2” for “[^18F]DMFB”, “30,” for “30, 60,”, “60” for “120”

B16F10 melanoma cells = assay: Melanoma cell uptake ratio experiment; type: cell-based, mouse
Procedure: B16F10 cell line, a mouse malignant melanoma cell line, was cultured in 5% CO2 in DMEM medium. Twenty-four hours prior to the experiment, cells were plated at 5×10^5 cells/well in 12-well plates and treated with 0.275 mM L-tyrosine-supplemented medium and non-supplemented medium, respectively. Then the cells were treated with 0.74 MBq of [18F]DMFB and incubated at 37° C. for 10, 30, and 60 min, respectively. After washing with PBS twice, the cells were treated with trypsin and the degree of [^18F]DMFB in the cell culture medium and cells in each time group was measured with a gamma counter, respectively. Three experiments were performed for each time group, and the results were expressed as percentage of the amount absorbed by cells versus the amount treated into the plate.

[2] = In vitro stability test in human serum; type: in vitro ADME; details: 1.0 ml human serum, 37° C., 2 hours, ITLC-sg / radio TLC
Procedure: For in vitro stability test, 0.74 MBq/100 μl of [^18F] DMFB was dissolved in 1.0 ml human serum and then evaluated at 37° C. for 2 hours. The structural stability was measured by ITLC-sg. ITLC-sg (1×10 cm) was developed using MC:MeOH=10:1. The results were confirmed by radio TLC.

[3] = tested on: B16F10 metastatic foci (lung, liver, lymph node); assay: In vivo distribution and PET imaging in lung/liver metastatic model mice; design: species or system C57BL/6 mice; details: 60 minutes from administering, lung metastasis model animal
Procedure: In order to examine the in vivo distribution and dynamics of [^18F]DMFB in lung/liver metastatic animal model, the present inventors divided C57BL/6 mice into two groups, one were injected with 1×10^5 cells of B16F10 cell line into the tail vein and the other were not injected with the tumor cells. After 14 days from the tumor cell inoculation, 7.4 MBq of [^18F]DMFB was injected into lung metastatic model mice and normal mice via tail vein, respectively and visualized at 60 min. Likewise, liver metastatic mice prepared by injecting 1×10^5 cells of B16F10 cell line into the tale vein were injected with 7.4 MBq of [^18F]DMFB into the tail vein. After 60 minutes of the administration, micro PET image was obtained. This liver metastatic model mice were produced among mice survived after a certain time after the induction of lung metastasis. Mice survived after the induction lung metastasis have metastasized to the lymph nodes and other organs after time elapse. […] After obtaining the images, the metastatic model mice and normal mice were sacrificed and lung and liver were excised and uptake ratio of the excised lung and liver were measured by a gamma counter. The results were corrected by organ weight and expressed as a percentage of injections per gram of tissue (% ID/g). […]

B16F10 cell line tumor [4] = assay: Micro PET imaging using xenograft tumor mouse model; type: in vivo, nude mouse; details: for signals in other organs (micro PET): 1 hour / 60 min after injection
Procedure: To confirm the in vivo dynamics of [^18F]DMFB, B16F10 cell line was injected into the right shoulder region, and about 10 days later, micro PET was performed using a nude mouse bearing tumor ranging in size of 100-150 mm^3. The nude mice were anesthetized with Isoflurane inhalation and then injected with 7.4 MBq of [^18F]DMFB into the tail vein. Static micro PET images were obtained at 10, 30, and 60 minutes after injection of the radioactive compound. Tumor uptake was determined and the images were reconstructed using 3D-ordered subset expectation maximization (3D-OSEM).
In addition, the in vivo dynamics of [^18F] DMPY2 was also analyzed by the same method as described above except that micro PET images were taken at 30 and 60 minutes after injection.

B16F10 xenograft tumor = assay: Comparison of [^18F]DMPY2 and [^18F]FDG, micro PET in melanoma xenograft model mice; type: in vivo; details: 1 hour after injection, 7.4 MBq
Procedure: (§2) The present inventors compared the imaging capabilities for melanoma and lung metastasis of the melanoma of [^18F]DMPY2 according to one embodiment of the present invention with the [^18F]FDG which has been used as a PET contrast agent for diagnosing cancer previously.
Particularly, melanoma xenograft model mice were prepared in the same manner as in Experimental Example 5, and then 7.4 MBq of [^18F]DMPY2 and [^18F]FDG were injected respectively, and systemic micro PET images were obtained at 1 hour after the injection.

[5] = tested on: lung metastasis of melanoma; assay: Comparison of [^18F]DMPY2 and [^18F]FDG, micro PET in lung metastasis model mice; type: in vivo; details: 1 hour after injection, 7.4 MBq
Procedure: as §2
In addition, after lung metastasis model mice were prepared in the same manner as in Experimental Example 6, 7.4 MBq of [^18F]DMPY2 and [^18F]FDG were injected, respectively, and systemic micro PET images were obtained at 1 hour after the injection.

melanoma = details: cited from earlier work; for detection rate for melanoma: melanoma patients
[6] = with time after injection (10, 30, 60 minutes)

binding rate to melanin (Melanin binding assay; 2 mg melanin, 37° C., 10 to 120 minutes): ≥ 85% | change of melanin binding rate over time (Melanin binding assay; after 120 minutes): did not significantly decrease | radioactivity in internal organs (blood, heart, liver, lung, kidney) (B16F10 cell line tumor [1]; 10 minutes after injection, 7.4 MBq tail vein): strong radioactivity was detected | absorption ratio in stomach, liver, and kidney (B16F10 cell line tumor [1]; 1 hour after injection): relatively low | absorption ratio in tumor tissues (B16F10 cell line tumor [1]; 1 hour after injection): highest | radioactivity in the tumor tissue (B16F10 cell line tumor [1]; elapsed time of 2 hours): maintained | radioactivity in the visceral organs (B16F10 cell line tumor [1]; elapsed time of 2 hours): hardly detected | structural stability in human serum [2]: very stable even after 2 hours
SMILES: CN(C)CCNC(=O)c1ccc([18F])cc1 [[^18F]DMFB, N-(2-(dimethylamino)ethyl)-4-[^18F]fluorobenzamide]
uptake in B16F10 melanoma cells (B16F10 melanoma cells; L-tyrosine not treated): hardly absorbed | uptake in B16F10 melanoma cells (B16F10 melanoma cells; medium supplemented with tyrosine (0.275 mM L-tyrosine), 10 to 60 minutes): significantly increased | detection of lung metastatic cancer (micro PET) [3]: possible to detect a lung metastatic cancer | signals in other organs (micro PET) (B16F10 cell line tumor [4]): maintaining signal in other organs | radiation in the tumor tissue (micro PET) (B16F10 cell line tumor [4]; [6]): maintained | radioactivity in the liver (micro PET) (B16F10 cell line tumor [4]; [6]): decreased with time

absorption ratio in tumor tissues (B16F10 cell line tumor [1]; 1 hour after injection): accumulated most in tumor tissue | signal in other organs such as kidney (B16F10 cell line tumor [1]; over time to 1 hour after injection): rapidly decreased
SMILES: CN(C)CCNC(=O)c1ccc([18F])cn1 [[^18F]DMPY2]
signal in tumor tissue (micro PET) (B16F10 xenograft tumor): clear signal only in tumor tissue | signal to noise ratio (micro PET) (B16F10 xenograft tumor): very high | signal in the metastatic lung (micro PET) [5]: very strong signal | signals / noise in other organs (micro PET) [5]: little or no noise in other organs except bladder | signals in other organs (micro PET) (B16F10 cell line tumor [4]): very weak | signal in melanoma tumor tissue (micro PET) (B16F10 cell line tumor [4]; 1 hour after injection): clearly observed

SMILES: O=C[C@H]([18F])[C@@H](O)[C@H](O)[C@H](O)CO [[^18F]FDG, F-18-fluoro-deoxyglucose, reference compound]
background noise (micro PET) (B16F10 xenograft tumor): background noise was widespread throughout the whole body | signal in tumor tissue (micro PET) (B16F10 xenograft tumor): showed a signal in the tumor tissue | identification of metastatic foci with less than 1 cm in diameter (melanoma; lung, liver, and brain): failed to identify | signals / noise in other organs (micro PET) [5]: stronger than the lungs | suitability for diagnosing lung metastasis of melanoma [5]: unsuitable

SMILES: [11CH3]SCC[C@H](N)C(=O)O [^11C-methionine, L-[methyl-^11C]methionien]
detection rate for melanoma (melanoma): extremely low

SMILES: N[C@@H](Cc1cc(O)c(O)cc1[18F])C(=O)O [^18F-DOPA, 6-^18F-Fluoro-L-dihydroxyphenylalanine]
detection rate for melanoma (melanoma): extremely low

SMILES: Cc1cn([C@H]2C[C@H]([18F])[C@@H](CO)O2)c(=O)[nH]c1=O [^18F-FLT, 3′-^18F-fluoro-3′-deoxy-L-thymidine]
detection rate for melanoma (melanoma): extremely low
